Measurements taken from patent US20110190834A1, “DEVICES AND METHODS FOR SUPPRESSION OF SYMPATHOEXCITATION” (priority 2010, published 2011).
Where two headings read alike, the source gives them in different places.

Key:
[1] = European (EMIAT) and Canadian (CAMIAT) post-myocardial infarction studies; cited from earlier work
[2] = Heart rate and blood pressure at peak exercise and in recovery, with atropine given during exercise; assay type: in vivo, human
Protocol: In experiments performed during development of embodiments of the present invention, the parasympathetic effects on cardiac electrophysiology during the post-exercise recovery period were studied. Subjects underwent upright bicycle exercise testing on two occasions. Continuous 12-lead ECG monitoring was performed using a commercially available system (Quest Exercise Stress System, Burdick, Deerfield Wis.) for a baseline period of 5 minutes prior to exercise. Subjects underwent a 16-minute submaximal exercise protocol on a stationary bicycle with an initial work load of 50 Watts followed by increases to 75 Watts at 4 minutes and 100 Watts at 8 minutes, as tolerated by the patient. Continuous ECG was recorded for up to 45 minutes of recovery. Blood samples for determination of plasma epinephrine and norepinephrine samples were taken during the rest period, at minutes 8 and 15 of exercise, and during the recovery period at 5, 10, 20, 30, and 45 minutes after cessation of exercise. […]

[3] = Atropine test
[4] = atropine test versus baseline test
[5] = peak exercise, iv atropine 0.04 mg/kg from minute 12 of exercise
[6] = recovery 5 min, iv atropine 0.04 mg/kg during exercise
[7] = recovery 10 min, iv atropine 0.04 mg/kg during exercise
[8] = recovery 20 min, iv atropine 0.04 mg/kg during exercise
[9] = recovery 30 min, iv atropine 0.04 mg/kg during exercise

CCCCc1oc2ccccc2c1C(=O)c1cc(I)c(OCCN(CC)CC)c(I)c1 [Amiodarone]
effect on total mortality [1]: has not been shown to have a beneficial effect

CN1[C@@H]2CC[C@H]1C[C@@H](OC(=O)C(CO)c1ccccc1)C2 (some centres unmarked) [Atropine, atropine]
change in diastolic blood pressure [2, 4]: no detectable changes
change in heart rate [2, 4]: large changes in heart rate
change in systolic blood pressure [2, 4]: no detectable changes
Diastolic BP [2, 5]: 83 ± 14 mmHg
Systolic BP [2, 5]: 162 ± 25 mmHg
Diastolic BP [2, 6]: 78 ± 9 mmHg
HEART RATE [2, 6]: 110 ± 16 bpm
Systolic BP [2, 6]: 122 ± 15 mmHg
Diastolic BP [2, 7]: 78 ± 9 mmHg
HEART RATE [2, 7]: 106 ± 16 bpm
Systolic BP [2, 7]: 120 ± 16 mmHg
Diastolic BP [2, 8]: 78 ± 11 mmHg
HEART RATE [2, 8]: 102 ± 15 bpm
Systolic BP [2, 8]: 118 ± 14 mmHg
Diastolic BP [2, 9]: 79 ± 9 mmHg
HEART RATE [2, 9]: 99 ± 14 bpm
Systolic BP [2, 9]: 117 ± 14 mmHg
ln(NE) mean ([3]; 30th min recovery, N=81): 6.31
ln(NE) mean ([3]; rest (before exercise and before atropine), N=90): 6.38
